Measurements from patent US20030078211A1, “Compositions and methods for inhibiting bone resorption” (Merck & Co., Inc., priority 1998, published 2003).
*: point of attachment. Cbz = O=C(OCc1ccccc1)*; CH2F = FC*

What was measured:
Mst 1 = experiment: In-gel kinase assay using myelin basic protein as a substrate, purified osteoclast-like cells (FIG. 4); format: cell-based, mice; conditions: for effect of caspase inhibitor on activation of Mst 1 by alendronate monosodium trihydrate: 20 μM caspase inhibitor with 30 μM alendronate monosodium trihydrate, FIG. 4 lanes 6-8
Protocol: Murine co-cultures of osteoblasts and marrow cells are prepared using the methods of Wesolowski, et al., Exp Cell Res, (1995), 219, pp. 679-686, which is incorporated by reference herein in its entirety. Bone marrow cells are harvested from 6-week-old male Balb/C mice by flushing marrow spaces of freshly isolated long bones (tibiae and femora) with α-MEM (minimal essential media) containing penicillin/streptomycin (100 I.U./ml of each and 20 mM Hepes buffer). The bone marrow cells are suspended in α-MEM and the cells are filtered through an approximately 70 μm cell strainer. The filtrate is centrifuged at about 300×g for about 7 minutes. The resulting pellet is resuspended in α-MEM supplemented with fetal calf serum (10% v/v) and 10 nM 1, 25-(OH)2 vitamin D3. These bone marrow isolates are added to sub-confluent monolayers of osteoblastic MB 1.8 cells in cell culture plates and cultured for 7 days at 37° C. in the presence of 5% CO2. Culture media is replenished ever other day. Fusion of the osteoclast precursor cells from bone marrow (with each other) to form multinucleated osteoclast-like cells typically occurs after about 7 days. Osteoclast-like cells are enriched by sequential treatment with collagenase (1 mg/mL in phosphate buffered saline) for one hour at 37° C. and EDTA (0.2 g/L in phosphate buffered saline) for 20 min at 37° C. Non-adherent cells are rinsed away by washing with phosphate buffered saline. […]
The compounds to be evaluated are prepared as a solution of the desired concentration in α-MEM. Examples of compounds that can be evaluated include nitrogen-containing bisphosphonates such as alendronate monosodium trihydrate, as well as compounds that block the effects of these inhibitors, such as caspase inhibitors such as Z-Val-Ala-Asp-FMK, Z-Asp-Glu-Val-Asp-FMK, and Z-Tyr-Val-Ala-Asp-FMK. Combinations of compounds can also be evaluated. The solutions of the compounds to be evaluated are added to the cultures for a time period of 17-24 hours. […]
Cells are then harvested and lysed in a HEPES (N-(2-hydroxyethyl)piperazine-N′-(2-ethansulfonic acid) or Tris buffer containing the following: β-glycerophosphate (50 mM); Na3VO4 (1 mM); NaF (1 mM); Microcystin LR (1 μM); leupeptin (10 μg/ml); aprotinin (10 μg/ml); phenylmethyl sulfonylfluoride (1 mM). Protein concentrations are determined for each lysate and 5-20 μg are loaded into each lane of a SDS-PAGE (sodium dodecyl sulfate-polyacrylamide gel electrophoresis) gel containing Myelin Basic Protein, or another kinase substrate, which has been polymerized into the gel at a concentration between 50-400 μg/ml. […]

[1] = test system: 34 kDa Mst kinase fragment; experiment: In-gel kinase assay of lysates of treated osteoclast-like cells; format: cell-based, mice; conditions: for activation of a 34 kDa Kinase: FIG. 3; for activation of the 34 kDa Mst Kinase fragment: FIG. 2
Protocol: Murine co-cultures of osteoblasts and marrow cells are prepared using the methods of Wesolowski, et al., Exp Cell Res, (1995), 219, pp. 679-686, which is incorporated by reference herein in its entirety. Bone marrow cells are harvested from 6-week-old male Balb/C mice by flushing marrow spaces of freshly isolated long bones (tibiae and femora) with α-MEM (minimal essential media) containing penicillin/streptomycin (100 I.U./ml of each and 20 mM Hepes buffer). The bone marrow cells are suspended in α-MEM and the cells are filtered through an approximately 70 μm cell strainer. The filtrate is centrifuged at about 300×g for about 7 minutes. The resulting pellet is resuspended in α-MEM supplemented with fetal calf serum (10% v/v) and 10 nM 1, 25-(OH)2 vitamin D3. These bone marrow isolates are added to sub-confluent monolayers of osteoblastic MB 1.8 cells in cell culture plates and cultured for 7 days at 37° C. in the presence of 5% CO2. Culture media is replenished ever other day. Fusion of the osteoclast precursor cells from bone marrow (with each other) to form multinucleated osteoclast-like cells typically occurs after about 7 days. Osteoclast-like cells are enriched by sequential treatment with collagenase (1 mg/mL in phosphate buffered saline) for one hour at 37° C. and EDTA (0.2 g/L in phosphate buffered saline) for 20 min at 37° C. Non-adherent cells are rinsed away by washing with phosphate buffered saline. Osteoclast-like cells which are resistant to the sequential treatments are present at about 95% purity and are maintained in α-MEM supplemented with fetal calf serum (10% v/v), 10 nM 1,25-(OH)2 vitamin D3, macrophage-colony-stimulating factor (5 ng/mL).
The compounds to be evaluated are prepared as a solution of the desired concentration in α-MEM. Examples of compounds that can be evaluated include nitrogen-containing bisphosphonates such as alendronate monosodium trihydrate, as well as compounds that block the effects of these inhibitors, such as caspase inhibitors such as Z-Val-Ala-Asp-FMK, Z-Asp-Glu-Val-Asp-FMK, and Z-Tyr-Val-Ala-Asp-FMK. Combinations of compounds can also be evaluated. The solutions of the compounds to be evaluated are added to the cultures for a time period of 17-24 hours. No treatment controls (controls not treated with comcpounds) are prepared by adding equivalent volumes of α-MEM to the control dishes.
Cells are then harvested and lysed in a HEPES (N-(2-hydroxyethyl)piperazine-N′-(2-ethansulfonic acid) or Tris buffer containing the following: β-glycerophosphate (50 mM); Na3VO4 (1 mM); NaF (1 mM); Microcystin LR (1 μM); leupeptin (10 μg/ml); aprotinin (10 μg/ml); phenylmethyl sulfonylfluoride (1 mM). Protein concentrations are determined for each lysate and 5-20 μg are loaded into each lane of a SDS-PAGE (sodium dodecyl sulfate-polyacrylamide gel electrophoresis) gel containing Myelin Basic Protein, or another kinase substrate, which has been polymerized into the gel at a concentration between 50-400 μg/ml. Molecular weight standards are also loaded into one or more lanes of the gels. In-gel kinase assays are run according to a standard procedure based on Kameshita and Fujisawa, 1989 (Anal. Biochem. 183:139-143) and of Gotoh et al., 1990 (Eur. J. Biochem. 193: 661-669), both references being incorporated by reference herein in their entirety. The proteins are electrophoresed in the above gels. The gels are then successively soaked in 50 mM HEPES, pH 7.6; 5 mM 2-mercaptoethanol and each of the following (for each wash): (a) 20% isopropanol; (b) no additions; (c) urea (6 M); (d) Urea (3 M); (e) Urea (0.75 M); and Tween 20 (0.05% vol:vol). Kinase reactions are then run by first soaking the gels in 20 mM HEPES, pH 7.6; 20 mM MgCl2; 2 mM DTT and then in the same buffer containing […] ATP (non-radioactive) with ca. 1000 cpm/pmol ^32P-γ-ATP. The gels are then washed six times with 5% trichloroacetic acid and 1% pyrophosphate.

[2] = test system: Mst (mammalian Sterile-20-like kinase); experiment: Bisphosphonate-induced cleavage of Mst in osteoclasts; format: cell-based
osteoclast = experiment: Osteoclast cell cultures and bone resorption assays; format: cell-based

Molecule: NCCCC(O)(P(=O)(O)O)P(=O)(O)O [alendronate monosodium trihydrate, 4-amino-1-hydroxybutylidene-1,1-bisphosphonic acid monosodium trihydrate]
- activation of Mst 1 (Mst 1; 30 μM, osteoclast-like cells, FIG. 4): activation
- activation of a 34 kDa Kinase ([1]; 10 μM, about 17 hours): activation
- activation of the 34 kDa Mst Kinase fragment immunoprecipitated by anti-Mst and anti-Krs antibody cocktail ([1]; 30 μM, FIG. 1 lane 3): activated
- activation of the 34 kDa Mst Kinase fragment ([1]; 30 μM, about 17 hours): activation
- activation of a 34 kDa Kinase ([1]; 30 μM, about 17 hours): activation
- activation of the 34 kDa Mst Kinase fragment ([1]; 100 μM, about 17 hours): activation

Molecule: CC(O)(P(=O)(O)O)P(=O)(O)O [etidronate disodium]
- activation of the 34 kDa Mst Kinase fragment ([1]; 30 μM, about 17 hours): fail to activate
- activation of a 34 kDa Kinase ([1]; 100 μM, 17 hours): fail to activate
- activation of the 34 kDa Mst Kinase fragment ([1]; 100 μM, about 17 hours): fail to activate
- activation of a 34 kDa Kinase ([1]; 300 μM, 17 hours): fail to activate

Molecule: O=P(O)(O)C(Sc1ccc(Cl)cc1)P(=O)(O)O [tiludronate disodium]
- activation of the 34 kDa Mst Kinase fragment ([1]; 30 μM, about 17 hours): fail to activate
- activation of a 34 kDa Kinase ([1]; 100 μM, 17 hours): fail to activate
- activation of the 34 kDa Mst Kinase fragment ([1]; 100 μM, about 17 hours): fail to activate
- activation of a 34 kDa Kinase ([1]; 300 μM, 17 hours): fail to activate

Molecule: Cbz-Val-Ala-Asp-CH2F
- effect on cleavage of Mst induced by bisphosphonates such as alendronate monosodium trihydrate [2]: prevent the cleavage of Mst
- effect of caspase inhibitor on activation of Mst 1 by alendronate monosodium trihydrate (Mst 1): blocked
- effect on the inhibitory effect otherwise observed with a bisphosphonate such as alendronate monosodium trihydrate (osteoclast): can block the inhibitory effect
- activation of the 34 kDa Kinase by alendronate when coincubated with the caspase inhibitor ([1]; coincubation with alendronate, FIG. 3 lane 8): does not activate

Molecule: Z-Asp-Glu-Val-Asp-FMK (Cbz-DEVD-CH2F; SMILES CC(C)[C@H](NC(=O)[C@H](CCC(=O)O)NC(=O)[C@H](CC(=O)O)NC(=O)OCc1ccccc1)C(=O)N[C@@H](CC(=O)O)C(=O)CF)
- effect of caspase inhibitor on activation of Mst 1 by alendronate monosodium trihydrate (Mst 1): blocked
- effect on the inhibitory effect otherwise observed with a bisphosphonate such as alendronate monosodium trihydrate (osteoclast): can block the inhibitory effect

Molecule: Z-Tyr-Val-Ala-Asp-FMK (Cbz-YVAD-CH2F; SMILES CC(C)[C@H](NC(=O)[C@H](Cc1ccc(O)cc1)NC(=O)OCc1ccccc1)C(=O)N[C@@H](C)C(=O)N[C@@H](CC(=O)O)C(=O)CF)
- effect of caspase inhibitor on activation of Mst 1 by alendronate monosodium trihydrate (Mst 1): blocked
- effect on the inhibitory effect otherwise observed with a bisphosphonate such as alendronate monosodium trihydrate (osteoclast): can block the inhibitory effect
